Measurements reported in patent US20150289795A1, “METHODS AND KITS FOR THE PROGNOSIS OF COLORECTAL CANCER” (INSTITUCIÓ CATALANA DE RECERCA I ESTUDIS AVANÇATS, priority 2012, published 2015).

Tests used:
[1] = tested on: CoCSC-derived culture (TGFBR2-mutant tumour organoids of a Stage IV CRC patient); assay: in vitro growth of CoCSC-derived tumour organoid culture; assay type: cell-based, human; conditions: both TGFBR2 alleles inactivated, data not shown
Text: The purification of Colon Cancer CoCSCs from CRC biopsies is described elsewhere (Merlos-Suarez et al., 2011, Cell Stem Cell 8, 511-524). We isolated CoCSCs from the primary tumour of a Stage IV CRC patient and cultured them as epithelial tumour organoids as described in (Jung et al., 2011; Nat Med 17, 1225-1227; Sato et al., 2011; Gastroenterology 141, 1762-1772). […] When injected in immunodeficient mice, they generated tumours with abundant p-SMAD2+ stromal cells, implying that this primary CoCSCs elicited a TGF-beta response in the tumour microenvironment (data not shown).

[2] = tested on: colon cancer stem cells derived from a stage IV patient; assay: subcutaneous tumour formation by primary CoCSC-derived cells in mice; assay type: in vivo; conditions: 2 mg twice a day per os, from three days prior to inoculation until sacrifice; FIG. 12A
Text: (§1) A. Kaplan Meier curves show tumour free survival over time for mice injected subcutaneously with colon cancer stem cells derived from a stage IV patient, treated or not with a TGF beta inhibitor (LY2157299). Mice received LY2157299 or vehicle from three days prior to inoculation until sacrifice (n=12) B. Bioluminescence over time after intrasplenic inoculation of 5×10^5 colon cancer stem cells derived from a stage IV patient in NSG mice treated as in A. Intensities were normalized to day 0 and arbitrarily set to 100. Values are mean±SEM (*: p<0.05).
All experiments with mouse models were approved by the animal care and use committee of the Barcelona Science Park (CEEA-PCB) and the Catalan Government. Cells were injected subcutaneously in 5 to 6 weeks old Swiss nude or NSG mice, (Jackson Labs), which were followed for the periods described. Tumour appearance was assessed by palpation. Five to six weeks old Balb/c nude or NSG mice (Jackson Labs) were used to perform metastasis experiments by intra-splenic injection (Warren et al., 1995, J. Clin. Invest. 95, 1789-1797) […]

[3] = tested on: colon cancer stem cells derived from a stage IV patient; assay: liver metastasis after intrasplenic inoculation of CoCSCs, bioluminescence; assay type: in vivo, NSG mice
Text: as §1
All experiments with mouse models were approved by the animal care and use committee of the Barcelona Science Park (CEEA-PCB) and the Catalan Government. Cells were injected subcutaneously in 5 to 6 weeks old Swiss nude or NSG mice, (Jackson Labs), which were followed for the periods described. Tumour appearance was assessed by palpation. […]
Mice were anaesthetized, injected retro-orbitally with D-luciferin (Promega) and imaged for luciferase activity as previously described (Minn et al., 2005; J Clin Invest 115, 44-55). Luciferase activity measured immediately after cell injection was used to exclude any mice that were not successfully xenografted and to normalize bioluminescence. […]

[4] = tested on: TGF-beta signalling (p-SMAD2); assay: TGF-beta signalling and target gene mRNA in pre-established xenografts; assay type: in vivo, mice; conditions: tenfold higher dosed treatment for 3 days
Text: The TGF-beta receptor I kinase antagonist, LY2157299, developed by Eli Lilly (Beight, 2004, Eli Lilly and Co. PCT Int. Appl. In PCT Int. Appl. WO2004048382A1; Bueno et al., 2008; Eur J Cancer 44, 142-150) was synthesized following the procedure described (Mundla, 2007; Eli Lilly and Company. PCT Int. Appl. WO2007018818A1. In, (USA)). TGF-beta receptor type I inhibitor LY2157299 was suspended in a formulation (vehicle) composed of 1% sodium carboxy methylcellulose (NaCMC), 0.4% sodium lauryl sulfate (SLS), 0.05% anti-foam and 0.085% polyvinylpyrrolidone (PVP) in a concentration of 6.67 mg mL^−1. Mice were dosed twice a day with 2 mg in 300 μL (2 mg) per os. starting 3 days before CRC cell lines inoculation. A tenfold higher dosed treatment for 3 days was used to show TGF-beta signalling (p-SMAD2) and target gene mRNA downregulation in pre-established xenografts.

Cc1cccc(-c2nn3c(c2-c2ccnc4ccc(C(N)=O)cc24)CCC3)n1 [LY2157299, 2-(6-methyl-pyridin-2-yl)-3-[6-amido-quinolin-4-yl)-5,6-dihydro-4H-pyrrolo[1,2-b]pyrazole]
in vitro growth rates, morphology or organoid forming activity [1]: did not modify | formation of subcutaneous tumours (tumour free survival) [2]: conferred resistance to the formation of subcutaneous tumours | number of cells that engrafted the liver immediately after inoculation ([3]; kinetics of metastatic colonization, FIG. 12B inset): reduced the number of cells that engrafted the liver | formation of liver metastasis by CoCSCs inoculated via the spleen ([3]; same regime, 5×10^5 cells intrasplenic, NSG mice, FIG. 12B): reduced formation of liver metastasis | TGF-beta signalling (p-SMAD2) and target gene mRNA [4]: downregulation

active TGF-beta: active TGF-beta added to the CoCSC-derived culture
in vitro growth rates, morphology or organoid forming activity [1]: did not modify
